According to PubChem BioAssay (NCI):
“And” between values parts separate entries of the source, which are not always exact repeats. Identical values can stand only once.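 Growth conditions: 96-well plates. Treatment: test compound, 48 hours, 5 concentrations. Analysis: linear interpolation between bracketing concentrations; unreached endpoints set to highest concentration. Abbreviation: GI50, concentration required for 50% inhibition of growth. TGI denotes the concentration required for complete inhibition of growth.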

Assays:
Assay in all cases: growth of human tumour cells (NCI), 48 h; in the data active means GI50 below about 0.43 µM; inactive means the rest
M14 melanoma = test system: M14 melanoma
SR leukemia = test system: SR leukemia
K-562 leukemia = test system: K-562 leukemia
MCF7 breast = test system: MCF7 breast
TK-10 renal = test system: TK-10 renal
CAKI-1 renal = test system: CAKI-1 renal
HL-60(TB) leukemia = test system: HL-60(TB) leukemia
SK-MEL-5 melanoma = test system: SK-MEL-5 melanoma
HCT-15 colon = test system: HCT-15 colon
SF-268 CNS = test system: SF-268 CNS
NCI-H460 lung = test system: NCI-H460 lung
SNB-75 CNS = test system: SNB-75 CNS
HCT-116 colon = test system: HCT-116 colon
SF-539 CNS = test system: SF-539 CNS
SK-MEL-2 melanoma = test system: SK-MEL-2 melanoma
KM12 colon = test system: KM12 colon
IGROV1 ovarian = test system: IGROV1 ovarian
HS 578T breast = test system: HS 578T breast
NCI-H23 lung = test system: NCI-H23 lung
SF-295 CNS = test system: SF-295 CNS
DU-145 prostate = test system: DU-145 prostate
LOX IMVI melanoma = test system: LOX IMVI melanoma
SK-OV-3 ovarian = test system: SK-OV-3 ovarian
T-47D breast = test system: T-47D breast
HOP-92 NSCLC = test system: HOP-92 NSCLC
OVCAR-3 ovarian = test system: OVCAR-3 ovarian
SN12C renal = test system: SN12C renal
MOLT-4 leukemia = test system: MOLT-4 leukemia
UACC-257 melanoma = test system: UACC-257 melanoma
SW-620 colon = test system: SW-620 colon
A549 NSCLC = test system: A549 NSCLC
MDA-MB-435 = test system: MDA-MB-435
EKVX NSCLC = test system: EKVX NSCLC
BT-549 breast = test system: BT-549 breast
U251 CNS = test system: U251 CNS
HOP-62 NSCLC = test system: HOP-62 NSCLC
NCI-H522 lung = test system: NCI-H522 lung
786-0 renal = test system: 786-0 renal
UACC-62 melanoma = test system: UACC-62 melanoma
ACHN renal = test system: ACHN renal
A498 renal = test system: A498 renal
HCC-2998 colon = test system: HCC-2998 colon
NCI-H226 lung = test system: NCI-H226 lung
RXF 393 renal = test system: RXF 393 renal
UO-31 renal = test system: UO-31 renal
OVCAR-5 ovarian = test system: OVCAR-5 ovarian
HT29 colon = test system: HT29 colon
COLO 205 colon = test system: COLO 205 colon
OVCAR-4 ovarian = test system: OVCAR-4 ovarian
MALME-3M melanoma = test system: MALME-3M melanoma
OVCAR-8 ovarian = test system: OVCAR-8 ovarian
CCRF-CEM leukemia = test system: CCRF-CEM leukemia
NCI/ADR-RES ovarian = test system: NCI/ADR-RES ovarian
SK-MEL-28 melanoma = test system: SK-MEL-28 melanoma
RPMI-8226 leukemia = test system: RPMI-8226 leukemia
PC-3 prostate = test system: PC-3 prostate
MDA-MB-231 breast = test system: MDA-MB-231 breast
SNB-19 CNS = test system: SNB-19 CNS

Nc1nc(N)c2nc(CNc3ccc(C(=O)NC(CCC(=O)O)C(=O)O)cc3)cnc2n1 (stereo unspecified)
inactive: GI50 (SK-MEL-2 melanoma) > 100 µM | GI50 (HS 578T breast) > 100 µM | GI50 (HOP-92 NSCLC) > 100 µM | GI50 (EKVX NSCLC) 4.69 µM | GI50 (MALME-3M melanoma) 0.921 µM | GI50 (SK-MEL-28 melanoma) 0.941 µM | GI50 (MDA-MB-231 breast) > 23.1 µM and 6.99 µM
active: GI50 (M14 melanoma) < 0.01 µM | GI50 (SR leukemia) < 0.01 µM | GI50 (K-562 leukemia) < 0.01 µM | GI50 (MCF7 breast) 0.0101 µM and < 0.01 µM | GI50 (TK-10 renal) 0.0736 µM | GI50 (CAKI-1 renal) < 0.01 µM | GI50 (HL-60(TB) leukemia) < 0.01 µM | GI50 (SK-MEL-5 melanoma) 0.0585 µM and 0.0309 µM | GI50 (HCT-15 colon) 0.0422 µM and < 0.01 µM | GI50 (SF-268 CNS) 0.02 µM and < 0.01 µM | GI50 (NCI-H460 lung) < 0.01 µM | GI50 (HCT-116 colon) < 0.01 µM | GI50 (SF-539 CNS) 0.0204 µM and < 0.01 µM | GI50 (KM12 colon) < 0.01 µM | GI50 (IGROV1 ovarian) 0.0651 µM and < 0.01 µM | GI50 (NCI-H23 lung) 0.0604 µM and 0.0213 µM | GI50 (SF-295 CNS) 0.0327 µM and < 0.0134 µM | GI50 (DU-145 prostate) < 0.01 µM | GI50 (LOX IMVI melanoma) < 0.01 µM | GI50 (SK-OV-3 ovarian) 0.0755 µM and < 0.01 µM | GI50 (OVCAR-3 ovarian) 0.0695 µM and 0.0295 µM | GI50 (SN12C renal) < 0.01 µM | GI50 (MOLT-4 leukemia) 0.0375 µM and < 0.0131 µM | GI50 (UACC-257 melanoma) 0.0942 µM and 0.0723 µM | GI50 (SW-620 colon) < 0.01 µM | GI50 (A549 NSCLC) 0.032 µM and < 0.01 µM | GI50 (MDA-MB-435) < 0.01 µM | GI50 (BT-549 breast) 0.399 µM and 0.213 µM | GI50 (U251 CNS) 0.0468 µM and < 0.0107 µM | GI50 (HOP-62 NSCLC) 0.0408 µM and < 0.01 µM | GI50 (NCI-H522 lung) 0.0446 µM and 0.0815 µM | GI50 (786-0 renal) < 0.01 µM | GI50 (UACC-62 melanoma) 0.0274 µM and < 0.01 µM | GI50 (ACHN renal) < 0.01 µM | GI50 (A498 renal) 0.062 µM and 0.0488 µM | GI50 (HCC-2998 colon) 0.0329 µM and < 0.01 µM | GI50 (UO-31 renal) 0.0262 µM and < 0.01 µM | GI50 (OVCAR-5 ovarian) 0.0373 µM and 0.0307 µM | GI50 (HT29 colon) < 0.01 µM | GI50 (OVCAR-8 ovarian) < 0.01 µM | GI50 (CCRF-CEM leukemia) < 0.01 µM | GI50 (NCI/ADR-RES ovarian) < 0.01 µM | GI50 (RPMI-8226 leukemia) 0.0519 µM and 0.0313 µM | GI50 (PC-3 prostate) < 0.01 µM | GI50 (SNB-19 CNS) 0.0634 µM and 0.0656 µM
0.316 µM and 1.37 µM: GI50 (T-47D breast)
> 100 µM: TGI (M14 melanoma) | TGI (SR leukemia) | TGI (K-562 leukemia) | TGI (MCF7 breast) | TGI (TK-10 renal) | TGI (CAKI-1 renal) | TGI (HL-60(TB) leukemia) | TGI (SK-MEL-5 melanoma) | TGI (HCT-15 colon) | TGI (SF-268 CNS) | TGI (NCI-H460 lung) | TGI (SNB-75 CNS) | TGI (HCT-116 colon) | TGI (SF-539 CNS) | TGI (SK-MEL-2 melanoma) | TGI (KM12 colon) | TGI (IGROV1 ovarian) | TGI (HS 578T breast) | TGI (NCI-H23 lung) | TGI (SF-295 CNS) | TGI (DU-145 prostate) | TGI (LOX IMVI melanoma) | TGI (SK-OV-3 ovarian) | TGI (T-47D breast) | TGI (HOP-92 NSCLC) | TGI (OVCAR-3 ovarian) | TGI (SN12C renal) | TGI (MOLT-4 leukemia) | TGI (UACC-257 melanoma) | TGI (SW-620 colon) | TGI (A549 NSCLC) | TGI (MDA-MB-435) | TGI (EKVX NSCLC) | TGI (BT-549 breast) | TGI (U251 CNS) | TGI (HOP-62 NSCLC) | TGI (NCI-H522 lung) | TGI (786-0 renal) | TGI (UACC-62 melanoma) | TGI (ACHN renal) | TGI (A498 renal) | TGI (HCC-2998 colon) | TGI (NCI-H226 lung) | TGI (RXF 393 renal) | TGI (UO-31 renal) | TGI (OVCAR-5 ovarian) | TGI (HT29 colon) | TGI (COLO 205 colon) | TGI (OVCAR-4 ovarian) | TGI (MALME-3M melanoma) | TGI (OVCAR-8 ovarian) | TGI (CCRF-CEM leukemia) | TGI (NCI/ADR-RES ovarian) | TGI (SK-MEL-28 melanoma) | TGI (RPMI-8226 leukemia) | TGI (PC-3 prostate) | TGI (MDA-MB-231 breast) | TGI (SNB-19 CNS)
